Experimental data from patent US20200102349A1, “PEPTIDE REAGENTS AND METHODS FOR DETECTION AND TARGETING OF DYSPLASIA, EARLY CANCER AND CANCER” (THE REGENTS OF THE UNIVERSITY OF MICHIGAN, priority 2014, published 2020).
Where no end group is shown, it is not given here.

Tests used:
[1] = test system: tumor xenograft; conditions: systemic administration; cited from earlier work
[2] = test system: HT29 cells; test: Peptide binding to colorectal cancer cells on confocal microscopy (HT29); format: cell-based, human; conditions: HT29, 5 μM, 3 min
Experimental: (§1) HT29, SW480, and SW620 cells (˜10^3) were grown on cover slips to ˜80% confluence. The cells were washed 1× with PBS and incubated with 5 μM of QRH*-Cy5.5 and PEH*-Cy5.5 for 3 min at RT. The cells were then washed 3× in PBS, fixed with 4% paraformaldehyde (PFA) for 5 min, washed 1× with PBS, and then mounted on glass slides with ProLong Gold reagent containing DAPI (Invitrogen). Confocal fluorescence images were collected with FITC, Cy5.5, and DAPI filters (Leica Inverted SPSX Confocal Microscope System) using a 63× oil-immersion objective. Fluorescence intensities from 5 cells in 2 independent images were quantified using custom Matlab (Mathworks) software.
(§2) We assessed binding of QRH*-Cy5.5 to a panel of colorectal cancer cells that vary in EGFR expression level on confocal microscopy. We observed binding of QRH*-Cy5.5 to the surface (arrows) of HT29, SW480, and SW620 cells with decreasing strength, FIG. 3A-C, scale bars 30 μm. […] Results are an average of 10 cells from 2 independent images. EGFR expression is shown on Western blot, FIG. 3H.

[3] = test system: SW480 cells; test: Peptide binding to colorectal cancer cells on confocal microscopy (SW480); format: cell-based, human; conditions: SW480, 5 μM, 3 min
Experimental: as §1, §2

[4] = target: T1, EGFR (Homo sapiens, UniProt P00533); test: siRNA knockdown of EGFR in HT29 cells, confocal fluorescence microscopy; format: cell-based; set-up: endogenous in cells; host or cells: HT29 human colorectal adenocarcinoma cells (ATCC)
Experimental: as §1
We used siRNA to knockdown expression of EGFR in HT29 cells. We used ON-TARGETplus human EGFR siRNA and ON-TARGETplus non-targeting pool (Thermo Scientific) per manufacturer's protocol. 5 μL of siRNA at 5 μM/L concentration was transfected into HT29 cells using DharmaFECT (Thermo Scientific). QRH*-Cy5.5 and PEH*-Cy5.5 were incubated with HT29 siEGFR and siCL cells. The cells were fixed with either 4% PFA or methanol. A 1:1000 dilution of primary monoclonal mouse anti-EGFR antibody (Thermo Scientific, # MS-396, clone 199.12, IgG2a isotype) was incubated overnight at 4° C. Afterwards, the cells were washed 3× with PBS, and further incubated with 1:500 dilution of AF488-labeled secondary goat anti-mouse IgG antibody (Life Technologies, # A-11029) for 1 hour at RT, washed 3×, and then mounted on glass slides with ProLong Gold reagent containing DAPI (Invitrogen). Confocal fluorescence images were collected with FITC, Cy5.5, and DAPI filters using a 63× oil-immersion objective.
We validated specific binding of QRH*-Cy5.5 to EGFR on siRNA knockdown in HT29 cells. On confocal microscopy, QRH*-Cy5.5 (red), FIG. 2A, and AF488-labeled anti-EGFR (green), FIG. 2B, bind strongly to the surface (arrows) of control HT29 cells (transfected with siCL, non-targeting siRNA), scale bars 30 μm. […] The results (mean±std) for QRH*-Cy5.5, anti-EGFR AF488, and PEH*-Cy5.5 to control cells (siCL) were 7.8±1.7, 3.1±1.0, and 1.6±0.3 AU, respectively, and to EGFR knockdown cells (siEGFR) were 2.5±0.8, 1.0±0.4, and 1.9±0.7 AU, respectively, *P<0.01 by paired t-test, FIG. 2G. Results are an average of 10 cells from 2 images performed independently. EGFR expression is shown on Western blot, FIG. 12H.

[5] = test system: SW620 cells; test: Peptide binding to colorectal cancer cells on confocal microscopy (SW620); format: cell-based, human; conditions: SW620, 5 μM, 3 min
Experimental: as §1, §2

[6] = test system: colonic dysplasia (flat lesions and polyps); test: In vivo NIR fluorescence endoscopy of colon in CPC;Apc mouse; conditions: for mean (±SD) log of the T/B ratio: topical 100 μM, 5 min incubation
Experimental: For the in vivo fluorescence images of mouse colon, the T/B ratios for flat dysplasia and polyps were log-transformed to improve normality. The fold-change between classification pairs was estimated using the anti-log of the difference in the log-transformed data. Differences in results between the experimental and control peptides were evaluated on t-test. *P<0.05 was considered significant. Similar methods were used to evaluate the ex vivo fluorescence images of human colonic specimens. The results were plotted on a receiver-operator characteristic (ROC) curve. Co-localization of peptide and antibody binding was evaluated on Pearson's correlation coefficient. All analyses were performed using custom Matlab software (MathWorks Inc).
Mouse imaging studies were performed with approval of the University of Michigan Committee on the Use and Care of Animals (UCUCA). The mice were housed in pathogen-free conditions and supplied water ad libitum under controlled conditions of humidity (50±10%), light (12/12 hour light/dark cycle) and temperature (25° C.). Anesthesia was induced and maintained via a nose cone with inhaled isoflurane mixed with oxygen at a concentration of 2-4% at a flow rate of ˜0.5 L/min. The colon was first rinsed with tap water to remove mucous and debris. White light illumination was used first to identify anatomic landmarks, including polyps, mucosal folds, colonic segment, and distance of endoscope tip from anus, to register images with histology. The Cy5.5-labeled peptides were delivered at a concentration of 100 μM in a volume of 1.5 mL through the 3 Fr instrument channel. After 5 min for incubation, the colon was rinsed 3× with a tap water to remove the unbound peptides. After imaging was completed, the mice were euthanized. The colon was resected, and divided along the longitudinal axis. Flat lesions and polyps were identified on fluorescence, excised perpendicular to the mucosal surface, and processed for histology (H&E). We collected images from mice (n=5) that ranged in age from 7 to 10 months.
Imaging was performed using a small animal endoscope (Karl Storz Veterinary Endoscopy).^39 A xenon light source provides white light illumination via a fluid light cable. A diode-pumped solid state laser (TechnicaLaser Inc) provides excitation at λex=671 nm. The laser beam is expanded to a diameter of 3 mm to fill the aperture of the light cable. The laser power at the tip of the endoscope is <2 mW. The white light images reflect off a dichroic mirror (Semrock Inc, # FF685-Di02-25×36, λc=685 nm), and are focused by an achromatic doublet (Edmund Optics Inc, #32-323). They pass through a neutral density filter (OD 1), and are detected by a color camera (Point Grey Research, # GX-FW-28S5C-C). The fluorescence images pass through the dichroic and a band pass filter (Semrock Inc, # FF01-716/40-25, λC=716 nm, Δλ=40 nm), and are focused on a monochrome camera (Point Grey Research, # GX-FW-28S5M-C). All videos (1932×1452 resolution) are recorded at 15 frames per sec via a firewire connection.
White light and fluorescence videos were exported in avi format with 24 (RGB) and 8 (grayscale) bit digital resolution for the color and fluorescence images, respectively. […] Individual frames were exported using custom Matlab software. On the fluorescence images, 3 regions of interest (ROI, 25×25 pixels) were picked at random within the dysplastic lesion and within adjacent areas of normal-appearing mucosa. The mean intensities within these ROI's on the fluorescence images were measured. The target to-background (T/B) ratio for each image was determined by ratioing the mean intensities of these two ROIs.

[7] = test system: HT29 cells; test: Competition for peptide binding with unlabeled peptide; format: cell-based, human; conditions: unlabeled peptide 0-500 μM, then 5 μM QRH*-Cy5.5, 4° C.
Experimental: Specific binding of QRH*-Cy5.5 to HT29 cells was validated on competitive inhibition with unlabeled QRH* peptide. A total of −10^3 HT29 cells were grown to −70% confluence on cover slips in triplicate. Unlabeled QRH* and PEH* peptide at 0, 50, 100, 150, 250, and 500 μM were added and incubated with the cells for 30 min at 4° C. The cells were washed and incubated with 5 μM of QRH*-Cy5.5 for another 30 min at 4° C. The cells were washed and fixed with 4% PFA for 5 min. The cells were washed with PBS and mounted with ProLong Gold reagent containing DAPI (Invitrogen). Fluorescence images were collected at each concentration using a 63× objective (Zeiss Axioskop 2 plus microscope), and intensities from 5 cells in 2 independent images were quantified using custom Matlab (Mathworks) software.

[8] = test system: HT29 cells; test: Apparent association time constant on flow cytometry; format: binding, human
Experimental: We measured the apparent association time constant of the peptide to HT29 cells as an assessment of binding onset. HT29 cells were grown to […] confluence in 10 cm dishes, and detached with PBS-based cell dissociation buffer (Invitrogen). Cells (˜10^5) were incubated with 5 μM QRH*-Cy5.5 at 4° C. for various time intervals ranging from 0 to 20 min. The cells were centrifuged, washed with cold PBS, and fixed with 4% PFA. Flow cytometry analysis was performed as described above, and the median fluorescence intensity (y) was ratioed with that of HT29 cells without addition of peptide at different time points (t) using Flowjo software. The rate constant k was calculated by fitting the data to a first order kinetics model, y(t)=Imax[1−exp^(−kt)], where Imax=maximum value,^60 using Prism 5.0 software (GraphPad Inc).

[9] = test system: HT29 cells; test: Apparent dissociation constant on flow cytometry; format: binding, human; conditions: 4° C., 1 hour
Experimental: We measured the apparent dissociation constant of the peptide to HT29 cells as an assessment of binding affinity. QRH*-Cy5.5 was serially diluted in PBS at concentrations of 0, 10, 25, 50, 75, 100, 125, 150 and 200 nM. HT29 cells (˜10^5) were incubated with QRH*-Cy5.5 at 4° C. for 1 hour, washed with cold PBS, and the mean fluorescence intensities were measured on flow cytometry. The equilibrium dissociation constant kd=1/ka was calculated by performing a least squares fit of the data to the non-linear equation […]. I0 and Imax are the initial and maximum fluorescence intensities, corresponding to no peptide and at saturation, respectively, and [X] represents the concentration of the bound peptide [Thomas et al., Clin Exp Metastasis, 26:105-119 (2009)]. Origin 6.1 data analysis software (OriginLab Corp) was used to calculate kd.

[10] = test system: OE21 human esophageal SCC cells; test: Binding of FITC-labeled peptide to esophageal SCC cells on confocal microscopy; format: cell-based
Experimental: We have further validated specific binding of the FITC-labeled peptide to EGFR on co-localization with anti-EGFR antibody. A total of ˜7.5×10^3 OE21 cells were grown to ˜70% confluence on cover slips and fixed with methanol for 5 min at ˜20° C. The cells were incubated for 2 hours at RT with 1:500 dilution of primary anti-EGFR mAb (199.12, Neomarkers). The cells were incubated with 1:500 dilution of secondary Cy5.5-labeled antibody for 1 hour at RT, and mounted with ProLong Gold with DAPI (Invitrogen). On confocal microscopy, we observe specific binding of Cy5.5-labeled anti-EGFR antibody (red) to the membrane (arrow) of OE21 cells, FIG. 8A. We then added the FITC-labeled peptide to the OE21 cells. After 10 min for incubation at 37° C., co-localization of the peptide (green) with the antibody (red) to the membrane (arrow) of OE21 cells can be observed, FIG. 8B.

[11] = target: T1, EGFR; conditions: read-out: binding affinity; cited from earlier work

For CMYIEALDKYAC, the “time of peak accumulation / binding activity in tumor xenograft after injection” value [1] is given as 8 h.

In the case of LARLLT, the “time of peak accumulation / binding activity in tumor xenograft after injection” value [1] is listed as roughly 80 h.

In the case of “PEH*-Cy5.5: scrambled sequence PEHKRRQ (SEQ ID NO: 19) for control, Cy5.5-labeled (also: Cy5.5 label, site not given here) [reference compound]”, the “fluorescence intensity of binding (mean±std)” value [2] is reported as 1.7±0.4, the “fluorescence intensity of binding (mean±std)” value [3] is reported as 1.2±0.3 and the “fluorescence intensity (mean±std)” value ([4]; EGFR knockdown HT29 cells (siEGFR)) is reported as 1.9±0.7 AU. For the same substance, the “fluorescence intensity (mean±std)” value ([4]; control HT29 cells (siCL, non-targeting siRNA)) was 1.6±0.3 AU, the “fluorescence intensity of binding (mean±std)” value [5] was 0.8±0.3 and the “mean (±SD) log of the T/B ratio” value ([6]; flat lesions (n=15)) was 0.108±0.143. For the same substance, the “mean (±SD) log of the T/B ratio” value ([6]; polyps (n=15)) was 0.186±0.233 and the “NIR fluorescence signal from polyp and flat lesions in vivo” value ([6]; topical, distal colon, 5 min) was “minimal signal”.

With “PEH*: unlabeled PEH* (control) (PEHKRRQGGGSK) [reference compound]” the “change of fluorescence intensity of QRH*-Cy5.5 binding on addition of unlabeled peptide” value [7] was “no change”.

For “QRH*: unlabeled QRH* peptide (QRHKPREGGGSK)”, the “change of fluorescence intensity of QRH*-Cy5.5 binding on addition of unlabeled peptide” value [7] was “decrease in a concentration dependent manner”.

With QRHKPRE the “binding time scale (onset)” value [8] was less than 2.5 min, the “apparent association time constant k” value ([8]; 5 μM, 4° C., flow cytometry) was 0.406 min⁻¹ and the Kd [9] was 50 nM.

With “SHR*-FITC: FITC labeled SHRNRPRNTQPS (SHR*) (SEQ ID NO: 21) peptide (also: FITC label, site not given here)” the “binding on confocal fluorescence microscopy” value [10] was “significantly increased fluorescence intensity” and the “co-localization with Cy5.5-labeled anti-EGFR antibody” value ([10]; 10 min, 37° C.) was “co-localization”.

In the case of YHWYGYTPQNVI, the Kd [11] is listed as 22 nM and the “time of peak accumulation / binding activity in tumor xenograft after injection” value [1] is listed as 4 h.
